Measured values published in PubChem BioAssay AID330 (DTP/NCI, 2004).
Where “and” joins values, the source holds several entries; their conditions need not be identical. Identical values can stand only once. Inconclusive results and toxic doses are left out.

System: P388 leukemia ip, CD2F1 mice, survival T/C
Assay: NCI In Vivo Anticancer Drug Screen. Data for tumor model P388 Leukemia (intraperitoneal) in CD2F1 (CDF1) mice
Conditions: endpoint: median survival time, higher = longer survival
Method in brief: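 Mice carrying the transplanted tumor received test compound or vehicle. Survival was recorded in each group, and the value is the treated-group measurement divided by that of the vehicle-treated control group.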

[1] = dose: 25.0 mg/kg/injection, schedule: Q04DX003 (ip), vehicle: saline with Tween-80
[2] = dose: 50.0 mg/kg/injection, schedule: Q01DX009 (ip), vehicle: saline with Tween-80
[3] = dose: 50.0 mg/kg/injection, schedule: Q04DX003 (ip), vehicle: saline with Tween-80
[4] = dose: 100.0 mg/kg/injection, schedule: Q01DX009 (ip), vehicle: saline with Tween-80
[5] = dose: 100.0 mg/kg/injection, schedule: Q04DX003 (ip), vehicle: saline with Tween-80
[6] = dose: 30.0 mg/kg/injection, schedule: Q01DX005 (ip), vehicle: saline with Tween-80
[7] = dose: 60.0 mg/kg/injection, schedule: Q01DX005 (ip), vehicle: saline with Tween-80
[8] = dose: 120.0 mg/kg/injection, schedule: Q01DX005 (ip), vehicle: saline with Tween-80
[9] = dose: 240.0 mg/kg/injection, schedule: Q01DX005 (ip), vehicle: saline with Tween-80
[10] = dose: 6.25 mg/kg/injection, schedule: Q01DX009 (ip), vehicle: saline with Tween-80
[11] = dose: 12.5 mg/kg/injection, schedule: Q01DX009 (ip), vehicle: saline with Tween-80
[12] = dose: 25.0 mg/kg/injection, schedule: Q01DX009 (ip), vehicle: saline with Tween-80
[13] = dose: 12.5 mg/kg/injection, schedule: Q01DX005 (ip), vehicle: Klucel (hydroxypropylcellulose) (HPC)
[14] = dose: 25.0 mg/kg/injection, schedule: Q01DX005 (ip), vehicle: Klucel (hydroxypropylcellulose) (HPC)
[15] = dose: 50.0 mg/kg/injection, schedule: Q01DX009 (ip), vehicle: Klucel (hydroxypropylcellulose) (HPC)
[16] = dose: 100.0 mg/kg/injection, schedule: Q01DX009 (ip), vehicle: Klucel (hydroxypropylcellulose) (HPC)
[17] = dose: 200.0 mg/kg/injection, schedule: Q01DX009 (ip), vehicle: Klucel (hydroxypropylcellulose) (HPC)
[18] = dose: 60.0 mg/kg/injection, schedule: Q01DX005 (ip), vehicle: saline
[19] = dose: 120.0 mg/kg/injection, schedule: Q01DX005 (ip), vehicle: saline
[20] = dose: 240.0 mg/kg/injection, schedule: Q01DX005 (ip), vehicle: saline
[21] = dose: 50.0 mg/kg/injection, schedule: Q01DX005 (ip), vehicle: Klucel (hydroxypropylcellulose) (HPC)

## CS(=O)(=O)OCCN(CCOS(C)(=O)=O)c1cccc(C(F)(F)F)c1
dose: 0.75 mg/kg/injection, schedule: Q04DX003 (ip), vehicle: saline
  T/C: 100 % of control
dose: 1.5 mg/kg/injection, schedule: Q04DX003 (ip), vehicle: saline
  T/C: 100 % of control
dose: 3.0 mg/kg/injection, schedule: Q04DX003 (ip), vehicle: saline
  T/C: 100 % of control
[1]
  T/C: 170 % of control and 212 % of control
[2]
  T/C: 159 % of control
[3]
  T/C: 216 % of control
[4]
  T/C: 213 % of control
[5]
  T/C: 87 % of control

## CCOC(=O)N=C=S
[2]
  T/C: 108 % of control
[4]
  T/C: 108 % of control

## C1=C(c2ccccc2)C(=Nc2ccccc2)SC1=Nc1ccccc1
dose: 1.87 mg/kg/injection, schedule: Q01DX005 (ip), vehicle: saline with Tween-80
  T/C: 113 % of control
dose: 7.5 mg/kg/injection, schedule: Q01DX005 (ip), vehicle: saline with Tween-80
  T/C: 107 % of control
[6]
  T/C: 100 % of control
[7]
  T/C: 120 % of control
[8]
  T/C: 122 % of control
[9]
  T/C: 120 % of control

## O=C(O)C1C(CCl)=C1CCl
dose: 60.0 mg/kg/injection, schedule: Q01DX005 (ip), vehicle: Klucel (hydroxypropylcellulose) (HPC)
  T/C: 100 % of control
dose: 120.0 mg/kg/injection, schedule: Q01DX005 (ip), vehicle: Klucel (hydroxypropylcellulose) (HPC)
  T/C: 104 % of control

## Brc1ccc(C2=CSC3=NCCN23)cc1
dose: 1.56 mg/kg/injection, schedule: Q01DX009 (ip), vehicle: saline with Tween-80
  T/C: 97 % of control
dose: 3.12 mg/kg/injection, schedule: Q01DX009 (ip), vehicle: saline with Tween-80
  T/C: 94 % of control
[10]
  T/C: 106 % of control and 114 % of control and 93 % of control
[11]
  T/C: 100 % of control and 103 % of control and 122 % of control
dose: 18.75 mg/kg/injection, schedule: Q01DX009 (ip), vehicle: saline with Tween-80
  T/C: 93 % of control
[12]
  T/C: 108 % of control and 113 % of control

## Brc1cn2[n+](c1)[B-]n1cc(Br)c[n+]1[B-]2
dose: 15.0 mg/kg/injection, schedule: Q01DX005 (ip), vehicle: saline with Tween-80
  T/C: 100 % of control
[6]
  T/C: 100 % of control
[7]
  T/C: 100 % of control and 101 % of control

## N#CSCCC(=O)Nc1ccccc1
dose: 6.25 mg/kg/injection, schedule: Q01DX005 (ip), vehicle: Klucel (hydroxypropylcellulose) (HPC)
  T/C: 102 % of control
[13]
  T/C: 101 % of control
[14]
  T/C: 104 % of control

## CC1(C)Cc2oc(=O)n(-c3ccccc3)c(=O)c2C1
[15]
  T/C: 100 % of control
[16]
  T/C: 102 % of control
[17]
  T/C: 100 % of control

## COC1OC(COC(C)=O)C(N(C)C(C)=O)C1OC(C)=O (stereo not drawn)
[18]
  T/C: 103 % of control
[19]
  T/C: 96 % of control
[20]
  T/C: 104 % of control

## O=C1NN2CCN=C2c2ncccc21
[7]
  T/C: 104 % of control
[8]
  T/C: 94 % of control
[9]
  T/C: 87 % of control

## Fc1c(F)c(-c2c(F)c(F)c(OCC3CO3)c(F)c2F)c(F)c(F)c1OCC1CO1 (stereo not drawn)
[15]
  T/C: 98 % of control
[16]
  T/C: 103 % of control
[17]
  T/C: 102 % of control

## CC1(C)OC(=O)C(C)(C2(O)C=CCCC2)O1 (stereo not drawn)
dose: 100.0 mg/kg/injection, schedule: Q01DX001 (ip), vehicle: Klucel (hydroxypropylcellulose) (HPC)
  T/C: 102 % of control
dose: 200.0 mg/kg/injection, schedule: Q01DX001 (ip), vehicle: Klucel (hydroxypropylcellulose) (HPC)
  T/C: 102 % of control
dose: 400.0 mg/kg/injection, schedule: Q01DX001 (ip), vehicle: Klucel (hydroxypropylcellulose) (HPC)
  T/C: 101 % of control

## CCCCOP(=S)(N1CC1)N1CC1
dose: 6.25 mg/kg/injection, schedule: Q04DX003 (ip), vehicle: saline with Tween-80
  T/C: 154 % of control
dose: 12.5 mg/kg/injection, schedule: Q04DX003 (ip), vehicle: saline with Tween-80
  T/C: 195 % of control
[1]
  T/C: 236 % of control
dose: 44.0 mg/kg/injection, schedule: Q04DX003 (ip), vehicle: saline with Tween-80
  T/C: 204 % of control
[3]
  T/C: 259 % of control
dose: 66.0 mg/kg/injection, schedule: Q04DX003 (ip), vehicle: saline with Tween-80
  T/C: 200 % of control
[5]
  T/C: 179 % of control
dose: 150.0 mg/kg/injection, schedule: Q04DX003 (ip), vehicle: saline with Tween-80
  T/C: 100 % of control

## O=[N+]([O-])c1cccc(SNc2cccc(Cl)c2)c1
[12]
  T/C: 100 % of control
[1]
  T/C: 90 % of control
[2]
  T/C: 95 % of control
[3]
  T/C: 100 % of control
[4]
  T/C: 104 % of control
[5]
  T/C: 86 % of control
dose: 200.0 mg/kg/injection, schedule: Q04DX003 (ip), vehicle: saline with Tween-80
  T/C: 100 % of control

## O=C1NC(=O)C2C1C1C3OC3C2C2C3C(=O)NC(=O)C3C12 (stereo not drawn)
[10]
  T/C: 102 % of control
[11]
  T/C: 116 % of control
[12]
  T/C: 110 % of control
[4]
  T/C: 168 % of control

## Clc1ccc2c(c1)C1CN(C2)Cc2ccc(Cl)cc21
dose: 100.0 mg/kg/injection, schedule: Q01DX001 (ip), vehicle: saline with Tween-80
  T/C: 101 % of control
dose: 200.0 mg/kg/injection, schedule: Q01DX001 (ip), vehicle: saline with Tween-80
  T/C: 87 % of control
dose: 400.0 mg/kg/injection, schedule: Q01DX001 (ip), vehicle: saline with Tween-80
  T/C: 93 % of control

## COc1ccc2c(c1)C=C([N+](=O)[O-])C(N1CCOCC1)O2 (stereo not drawn)
[13]
  T/C: 106 % of control
[14]
  T/C: 108 % of control
[21]
  T/C: 101 % of control and 109 % of control

## COC1=CC=C2Nc3nc(N)[nH]c(=O)c3SC2N1 (stereo not drawn)
[7]
  T/C: 99 % of control
[8]
  T/C: 90 % of control
[9]
  T/C: 97 % of control

## COc1ccc2c(c1OC)C1=NCCc3cc4c(cc3C1(OC)C2=O)OCO4 (stereo not drawn)
[14]
  T/C: 111 % of control
[21]
  T/C: 99 % of control
dose: 100.0 mg/kg/injection, schedule: Q01DX005 (ip), vehicle: Klucel (hydroxypropylcellulose) (HPC)
  T/C: 109 % of control
dose: 200.0 mg/kg/injection, schedule: Q01DX005 (ip), vehicle: Klucel (hydroxypropylcellulose) (HPC)
  T/C: 98 % of control

## CC1CN2CCOC2(C)O1 (stereo not drawn)
[18]
  T/C: 106 % of control
[19]
  T/C: 102 % of control
[20]
  T/C: 101 % of control

## C[n+]1ccccc1-c1ccc[n+](CCCCC[n+]2cccc(-c3cccc[n+]3C)c2)c1
dose: 50.0 mg/kg/injection, schedule: Q01DX005 (ip), vehicle: saline
  T/C: 100 % of control and 104 % of control
dose: 100.0 mg/kg/injection, schedule: Q01DX005 (ip), vehicle: saline
  T/C: 99 % of control and 104 % of control
dose: 200.0 mg/kg/injection, schedule: Q01DX005 (ip), vehicle: saline
  T/C: 107 % of control

## CN(CC#CC#CCN(C)c1ccccc1)c1ccccc1
dose: 50.0 mg/kg/injection, schedule: Q01DX005 (ip), vehicle: saline with Tween-80
  T/C: 102 % of control
dose: 100.0 mg/kg/injection, schedule: Q01DX005 (ip), vehicle: saline with Tween-80
  T/C: 102 % of control
dose: 200.0 mg/kg/injection, schedule: Q01DX005 (ip), vehicle: saline with Tween-80
  T/C: 102 % of control

## Cc1[nH]c2ccc(N(C)C)cc2c(=O)c1CN(C)C
[15]
  T/C: 105 % of control
[16]
  T/C: 108 % of control

## C=C1CCN(c2ccc(F)cc2)C1=O
dose: 4.0 mg/kg/injection, schedule: Q01DX009 (ip), vehicle: saline + alcohol
  T/C: 100 % of control and 103 % of control and 90 % of control
dose: 8.0 mg/kg/injection, schedule: Q01DX009 (ip), vehicle: saline + alcohol
  T/C: 104 % of control and 107 % of control and 94 % of control
dose: 16.0 mg/kg/injection, schedule: Q01DX009 (ip), vehicle: saline + alcohol
  T/C: 110 % of control and 97 % of control
dose: 32.0 mg/kg/injection, schedule: Q01DX009 (ip), vehicle: saline + alcohol
  T/C: 98 % of control and 103 % of control and 104 % of control
dose: 64.0 mg/kg/injection, schedule: Q01DX009 (ip), vehicle: saline + alcohol
  T/C: 98 % of control and 100 % of control and 95 % of control

## O=C1C=C(C2=C(O)c3ccccc3C2=O)c2ccccc21 (tested in a mixture with another compound)
[15]
  T/C: 105 % of control
[16]
  T/C: 105 % of control

## O=C1C(Cl)=C(NCCCC2CCCN3CCCCC23)C(=O)c2ccccc21 (stereo not drawn)
dose: 25.0 mg/kg/injection, schedule: Q04DX002 (ip), vehicle: Klucel (hydroxypropylcellulose) (HPC)
  T/C: 100 % of control
dose: 50.0 mg/kg/injection, schedule: Q04DX002 (ip), vehicle: Klucel (hydroxypropylcellulose) (HPC)
  T/C: 101 % of control
dose: 100.0 mg/kg/injection, schedule: Q04DX002 (ip), vehicle: Klucel (hydroxypropylcellulose) (HPC)
  T/C: 114 % of control and 94 % of control
